Laboratory results from patent US8415469B2, “Compounds and methods for kinase modulation, and indications therefor” (Plexxikon Inc., priority 2005, dated 2013).

How the values were obtained:
Format in all cases: biochemical
Kit = target: T1, Kit (Homo sapiens, UniProt P10721); assay: AlphaScreen kinase assay, Kit; conditions: read-out: IC50, activity toward kinase Kit
T1 construct: P1332.N6 BI PTP KIT M552-K948-X COD; His6 (N); made in house; host or cells: E. coli (PTP1B co-expressed)

Jnk3 = target: T2, Jnk3 (Homo sapiens, UniProt P53779); assay: AlphaScreen kinase assay, Jnk3; conditions: read-out: IC50, activity toward kinase Jnk3
T2 construct: purchased Upstate Biotechnology

Kdr = target: T3, Kdr (Homo sapiens, UniProt P35968); assay: Z'-Lyte FRET kinase assay (Invitrogen), Kdr; conditions: read-out: IC50, activity toward kinase Kdr
T3 construct: purchased Invitrogen (assay run by Invitrogen)

Ret = target: T4, Ret (Homo sapiens, UniProt P07949); assay: AlphaScreen kinase assay, Ret; conditions: read-out: IC50, activity toward kinase Ret
T4 construct: P1378.pET-SF BI-PTP RET H661-R1012 HIS; made in house
T4 sequence (P07949 with tags, fused parts or gaps): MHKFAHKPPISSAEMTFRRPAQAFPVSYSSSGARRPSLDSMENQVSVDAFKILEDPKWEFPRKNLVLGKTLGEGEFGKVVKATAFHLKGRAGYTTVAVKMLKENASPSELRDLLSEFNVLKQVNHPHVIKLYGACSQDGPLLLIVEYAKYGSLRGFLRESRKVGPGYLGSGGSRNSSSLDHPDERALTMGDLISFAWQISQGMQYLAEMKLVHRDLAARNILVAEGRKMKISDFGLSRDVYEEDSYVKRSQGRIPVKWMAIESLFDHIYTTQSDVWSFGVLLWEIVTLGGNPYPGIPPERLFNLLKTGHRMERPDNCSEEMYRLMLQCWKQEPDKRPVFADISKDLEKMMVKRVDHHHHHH

Flt4 = target: T5, Flt4 (Homo sapiens, UniProt P35916); assay: AlphaScreen kinase assay, Flt4; conditions: read-out: IC50, activity toward kinase Flt4
T5 construct: purchased ProQinase GmbH (Freiburg, Germany)
Source text: AlphaScreen assay was used to screen additional kinases. The assay is similarly dependent on the phosphorylation of a peptide substrate. In this assay, an antibody that recognizes phosphorylated substrate is bound to an acceptor bead. The peptide substrate is attached to biotin, which binds to a donor head that contains streptavidin. Thus phosphorylated substrate is bound by antibody and streptavidin, bringing the donor and acceptor heads into close proximity when kinase is not inhibited. The donor produces singlet oxygen which results in emission from the acceptor when they are in close proximity. Conversely, when kinase is inhibited, the donor and acceptor beads are not associated and the emission from the acceptor is reduced.
AlphaScreen assays were done using compounds dissolved in DMSO to a concentration of 20 mM. The compounds were diluted accordingly to the desired final concentrations in each sample well, using 1:3 serial dilution for a total of 8 concentration points.

Stk6 = target: T6, Stk6 (Homo sapiens, UniProt O14965); assay: Z'-Lyte FRET kinase assay (Invitrogen), Stk6; conditions: read-out: IC50, activity toward kinase Stk6
T6 construct: purchased Invitrogen (Carlsbad, Calif.), screening service
T6 sequence (O14965 1-403): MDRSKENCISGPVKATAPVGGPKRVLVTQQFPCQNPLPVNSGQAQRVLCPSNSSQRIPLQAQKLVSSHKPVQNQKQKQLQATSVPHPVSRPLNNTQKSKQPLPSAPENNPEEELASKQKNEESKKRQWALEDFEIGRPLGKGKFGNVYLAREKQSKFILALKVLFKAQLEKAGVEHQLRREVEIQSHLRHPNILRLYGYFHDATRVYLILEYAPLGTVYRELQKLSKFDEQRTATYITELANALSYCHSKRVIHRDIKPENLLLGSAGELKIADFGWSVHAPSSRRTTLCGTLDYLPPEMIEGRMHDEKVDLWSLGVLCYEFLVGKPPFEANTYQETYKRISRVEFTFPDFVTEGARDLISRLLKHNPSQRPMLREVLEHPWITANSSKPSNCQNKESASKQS

FGFR1 = target: T7, FGFR1 (Homo sapiens, UniProt P11362, C488A/C584S); assay: AlphaScreen kinase assay, FGFR1; conditions: read-out: IC50, activity toward kinase FGFR
T7 construct: P1351.pET N6 BI-PTP FGFR A458-E765-X C488A, C584S; made in house; host or cells: E. coli (PTP1B co-expressed)

Flt1 = target: T8, Flt1 (Homo sapiens, UniProt P17948); assay: AlphaScreen kinase assay, Flt1; conditions: read-out: IC50, activity toward kinase Flt1
T8 construct: P1826.pETN6 BI-PTP FLT1 M799-D1165-X WT; His6 (N); made in house; host or cells: E. coli (PTP1B co-expressed)
T8 sequence (P17948 with tags, fused parts or gaps): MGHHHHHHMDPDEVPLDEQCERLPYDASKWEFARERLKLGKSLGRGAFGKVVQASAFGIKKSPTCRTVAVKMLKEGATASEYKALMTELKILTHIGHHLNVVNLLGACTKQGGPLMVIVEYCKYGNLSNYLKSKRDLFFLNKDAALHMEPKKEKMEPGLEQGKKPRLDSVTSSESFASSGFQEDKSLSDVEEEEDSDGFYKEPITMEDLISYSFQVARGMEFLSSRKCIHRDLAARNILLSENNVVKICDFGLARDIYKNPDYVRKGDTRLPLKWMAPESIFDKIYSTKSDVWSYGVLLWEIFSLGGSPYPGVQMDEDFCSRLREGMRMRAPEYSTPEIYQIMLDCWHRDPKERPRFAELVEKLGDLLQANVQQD

B-Raf V600E = target: T9, B-Raf V600E (Homo sapiens, UniProt P15056, V600E); assay: AlphaScreen kinase assay, B-Raf V600E; conditions: read-out: IC50, activity toward kinase B-Raf V600E
T9 construct: P4254. pFastBacBD-CDC37 BRAF D437-K722-X, V600E; His6 with pFastBac HT leader (TEV site) (N); made in house; host or cells: Sf9 (baculovirus; chaperone CDC37 co-expressed)

Fms = target: T10, Fms (Homo sapiens, UniProt P07333); assay: AlphaScreen kinase assay, Fms; conditions: read-out: IC50, activity toward kinase Fms
T10 construct: purchased Upstate Biotechnology

Fak = target: T11, Fak (Homo sapiens, UniProt Q05397); assay: AlphaScreen kinase assay, Fak; conditions: read-out: IC50, activity toward kinase Fak
T11 construct: P1358.pFastBacHtb FAK S411-Q686-X; His6 with pFastBacHTb leader (TEV site) (N); made in house; host or cells: Sf9 (baculovirus)

c-Raf-1 = target: T12, c-Raf-1 (Homo sapiens, UniProt P04049); assay: AlphaScreen kinase assay, c-Raf-1; conditions: read-out: IC50, activity toward kinase c-Raf-1
T12 construct: purchased Upstate Biotechnology

B-Raf = target: T13, B-Raf (Homo sapiens, UniProt P15056); assay: AlphaScreen kinase assay, B-Raf; conditions: read-out: IC50, activity toward kinase B-Raf
T13 construct: purchased Upstate Biotechnology

Btk = target: T14, Btk (Homo sapiens, UniProt Q06187); assay: Z'-Lyte FRET kinase assay (Invitrogen), Btk; conditions: read-out: IC50, activity toward kinase Btk
T14 construct: purchased Invitrogen (assay run by Invitrogen)

Jnk1 = target: T15, Jnk1 (Homo sapiens, UniProt P45983); assay: AlphaScreen kinase assay, Jnk1; conditions: read-out: IC50, activity toward kinase Jnk1
T15 construct: purchased Upstate Biotechnology

Src = target: T16, Src (Homo sapiens, UniProt P12931); assay: AlphaScreen kinase assay, Src; conditions: read-out: IC50, activity toward kinase Src
T16 construct: P1144. pET-N6 BI-PTP SRC V86-L536-X; made in house
T16 sequence (P12931 with tags, fused parts or gaps): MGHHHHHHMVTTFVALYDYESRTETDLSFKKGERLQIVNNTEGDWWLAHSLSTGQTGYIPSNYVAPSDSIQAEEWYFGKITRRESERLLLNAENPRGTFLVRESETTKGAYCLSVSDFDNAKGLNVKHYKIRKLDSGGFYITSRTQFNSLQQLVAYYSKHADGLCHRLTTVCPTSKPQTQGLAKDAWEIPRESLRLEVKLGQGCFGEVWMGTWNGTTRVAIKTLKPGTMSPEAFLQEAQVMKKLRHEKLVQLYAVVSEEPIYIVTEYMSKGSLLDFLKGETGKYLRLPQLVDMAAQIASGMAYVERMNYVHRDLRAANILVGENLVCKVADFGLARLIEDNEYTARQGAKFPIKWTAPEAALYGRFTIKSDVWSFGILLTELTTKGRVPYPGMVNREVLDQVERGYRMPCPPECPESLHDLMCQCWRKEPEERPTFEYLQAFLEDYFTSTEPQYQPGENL

T2 sequence (P53779 whole entry): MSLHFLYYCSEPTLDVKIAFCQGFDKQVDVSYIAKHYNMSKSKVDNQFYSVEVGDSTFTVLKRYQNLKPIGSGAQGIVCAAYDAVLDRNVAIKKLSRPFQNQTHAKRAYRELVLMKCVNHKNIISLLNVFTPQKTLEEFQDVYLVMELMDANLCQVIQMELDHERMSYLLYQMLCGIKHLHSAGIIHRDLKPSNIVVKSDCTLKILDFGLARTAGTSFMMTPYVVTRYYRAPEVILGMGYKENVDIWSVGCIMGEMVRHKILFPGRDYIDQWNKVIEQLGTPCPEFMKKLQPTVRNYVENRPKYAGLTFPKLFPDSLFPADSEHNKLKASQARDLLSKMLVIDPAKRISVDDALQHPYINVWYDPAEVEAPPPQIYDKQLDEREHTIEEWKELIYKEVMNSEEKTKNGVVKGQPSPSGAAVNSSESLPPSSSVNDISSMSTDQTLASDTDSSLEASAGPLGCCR
T3 sequence (P35968 20-1356): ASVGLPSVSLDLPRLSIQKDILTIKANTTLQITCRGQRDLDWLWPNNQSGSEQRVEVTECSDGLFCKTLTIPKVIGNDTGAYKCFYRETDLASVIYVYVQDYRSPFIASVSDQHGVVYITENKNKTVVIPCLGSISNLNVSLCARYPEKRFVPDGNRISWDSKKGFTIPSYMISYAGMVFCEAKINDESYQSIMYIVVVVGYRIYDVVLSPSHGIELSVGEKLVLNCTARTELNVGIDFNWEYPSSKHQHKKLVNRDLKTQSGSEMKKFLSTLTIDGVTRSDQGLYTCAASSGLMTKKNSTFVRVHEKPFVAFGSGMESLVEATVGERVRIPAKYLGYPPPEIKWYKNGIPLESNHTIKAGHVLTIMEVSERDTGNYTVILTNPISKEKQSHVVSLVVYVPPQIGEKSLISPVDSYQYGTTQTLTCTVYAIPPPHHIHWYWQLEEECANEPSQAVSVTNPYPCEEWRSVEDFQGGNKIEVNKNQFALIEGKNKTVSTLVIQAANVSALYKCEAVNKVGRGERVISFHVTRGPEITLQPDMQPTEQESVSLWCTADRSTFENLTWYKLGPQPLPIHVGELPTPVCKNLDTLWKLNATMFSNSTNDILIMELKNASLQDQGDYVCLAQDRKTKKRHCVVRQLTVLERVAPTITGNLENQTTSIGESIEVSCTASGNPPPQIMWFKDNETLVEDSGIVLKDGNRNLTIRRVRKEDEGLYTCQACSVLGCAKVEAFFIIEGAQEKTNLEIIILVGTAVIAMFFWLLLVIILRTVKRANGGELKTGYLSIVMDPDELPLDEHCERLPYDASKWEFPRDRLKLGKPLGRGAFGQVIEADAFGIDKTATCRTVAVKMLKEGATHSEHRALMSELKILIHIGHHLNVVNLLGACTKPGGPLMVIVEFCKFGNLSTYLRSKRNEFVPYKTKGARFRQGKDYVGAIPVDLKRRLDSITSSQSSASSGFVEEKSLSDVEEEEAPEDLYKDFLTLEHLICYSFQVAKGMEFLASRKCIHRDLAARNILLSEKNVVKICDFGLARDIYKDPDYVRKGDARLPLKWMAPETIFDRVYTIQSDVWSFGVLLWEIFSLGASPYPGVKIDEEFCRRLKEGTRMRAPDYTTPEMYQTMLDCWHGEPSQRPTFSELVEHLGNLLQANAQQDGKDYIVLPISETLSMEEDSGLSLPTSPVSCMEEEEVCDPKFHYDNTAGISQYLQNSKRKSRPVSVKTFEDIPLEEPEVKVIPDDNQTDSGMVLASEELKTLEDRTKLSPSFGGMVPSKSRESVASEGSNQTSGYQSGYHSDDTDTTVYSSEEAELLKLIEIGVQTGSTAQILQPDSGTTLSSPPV
T10 sequence (P07333 20-972): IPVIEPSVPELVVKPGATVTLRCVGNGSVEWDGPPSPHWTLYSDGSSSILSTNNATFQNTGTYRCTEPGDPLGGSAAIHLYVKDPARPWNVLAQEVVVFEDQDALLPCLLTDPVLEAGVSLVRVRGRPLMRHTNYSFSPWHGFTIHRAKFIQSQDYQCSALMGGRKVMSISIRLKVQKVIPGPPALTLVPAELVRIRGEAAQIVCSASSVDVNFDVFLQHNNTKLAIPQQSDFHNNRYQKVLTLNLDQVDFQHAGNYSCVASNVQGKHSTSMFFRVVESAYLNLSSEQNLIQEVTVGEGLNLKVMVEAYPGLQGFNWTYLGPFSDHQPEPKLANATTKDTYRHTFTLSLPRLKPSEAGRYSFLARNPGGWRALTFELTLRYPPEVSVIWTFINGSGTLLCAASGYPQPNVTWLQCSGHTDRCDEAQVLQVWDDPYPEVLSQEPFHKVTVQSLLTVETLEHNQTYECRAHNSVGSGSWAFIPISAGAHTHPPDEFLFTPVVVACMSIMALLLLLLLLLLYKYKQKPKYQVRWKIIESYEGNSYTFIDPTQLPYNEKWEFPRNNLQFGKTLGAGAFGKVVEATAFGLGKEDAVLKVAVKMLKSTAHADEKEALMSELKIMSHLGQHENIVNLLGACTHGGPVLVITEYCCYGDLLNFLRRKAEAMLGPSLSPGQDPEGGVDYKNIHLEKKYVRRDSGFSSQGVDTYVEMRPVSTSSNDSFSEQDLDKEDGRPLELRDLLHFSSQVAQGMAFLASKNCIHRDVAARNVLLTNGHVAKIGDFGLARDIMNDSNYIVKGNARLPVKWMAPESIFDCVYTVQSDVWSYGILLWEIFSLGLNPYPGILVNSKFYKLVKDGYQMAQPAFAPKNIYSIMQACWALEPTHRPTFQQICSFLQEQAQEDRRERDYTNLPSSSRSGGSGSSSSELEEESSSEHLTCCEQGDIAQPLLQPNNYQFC
T9 sequence (P15056 with tags, fused parts or gaps V600E): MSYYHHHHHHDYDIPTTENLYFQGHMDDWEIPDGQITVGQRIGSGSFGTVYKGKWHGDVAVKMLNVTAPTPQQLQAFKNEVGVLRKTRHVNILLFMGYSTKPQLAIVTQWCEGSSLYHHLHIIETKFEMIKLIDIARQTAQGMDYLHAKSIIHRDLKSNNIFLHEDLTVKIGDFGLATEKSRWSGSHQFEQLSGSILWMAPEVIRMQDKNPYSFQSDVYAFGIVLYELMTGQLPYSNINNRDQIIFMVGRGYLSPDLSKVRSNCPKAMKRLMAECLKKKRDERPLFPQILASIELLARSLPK
T1 sequence (P10721 with tags, fused parts or gaps): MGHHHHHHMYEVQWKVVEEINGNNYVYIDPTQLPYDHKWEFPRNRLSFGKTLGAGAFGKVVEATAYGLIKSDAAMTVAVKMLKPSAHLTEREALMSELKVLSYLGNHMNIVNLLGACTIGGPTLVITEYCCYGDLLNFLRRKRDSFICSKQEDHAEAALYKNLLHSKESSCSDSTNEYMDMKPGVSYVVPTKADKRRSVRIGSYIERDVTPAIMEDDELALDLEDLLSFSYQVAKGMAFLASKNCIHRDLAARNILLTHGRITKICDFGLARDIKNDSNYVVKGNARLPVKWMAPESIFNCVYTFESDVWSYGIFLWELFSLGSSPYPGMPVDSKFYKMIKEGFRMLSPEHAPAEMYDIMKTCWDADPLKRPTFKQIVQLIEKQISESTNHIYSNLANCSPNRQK
T7 sequence (P11362 458-765 C488A/C584S): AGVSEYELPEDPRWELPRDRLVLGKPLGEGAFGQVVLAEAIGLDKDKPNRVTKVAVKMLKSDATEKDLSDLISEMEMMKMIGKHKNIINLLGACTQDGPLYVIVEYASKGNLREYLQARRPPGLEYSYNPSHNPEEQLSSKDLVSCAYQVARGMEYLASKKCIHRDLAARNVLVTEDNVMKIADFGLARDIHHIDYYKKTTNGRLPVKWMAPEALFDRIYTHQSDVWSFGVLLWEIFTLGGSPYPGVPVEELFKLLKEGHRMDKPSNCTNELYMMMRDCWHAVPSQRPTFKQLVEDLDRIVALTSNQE
T12 sequence (P04049 whole entry): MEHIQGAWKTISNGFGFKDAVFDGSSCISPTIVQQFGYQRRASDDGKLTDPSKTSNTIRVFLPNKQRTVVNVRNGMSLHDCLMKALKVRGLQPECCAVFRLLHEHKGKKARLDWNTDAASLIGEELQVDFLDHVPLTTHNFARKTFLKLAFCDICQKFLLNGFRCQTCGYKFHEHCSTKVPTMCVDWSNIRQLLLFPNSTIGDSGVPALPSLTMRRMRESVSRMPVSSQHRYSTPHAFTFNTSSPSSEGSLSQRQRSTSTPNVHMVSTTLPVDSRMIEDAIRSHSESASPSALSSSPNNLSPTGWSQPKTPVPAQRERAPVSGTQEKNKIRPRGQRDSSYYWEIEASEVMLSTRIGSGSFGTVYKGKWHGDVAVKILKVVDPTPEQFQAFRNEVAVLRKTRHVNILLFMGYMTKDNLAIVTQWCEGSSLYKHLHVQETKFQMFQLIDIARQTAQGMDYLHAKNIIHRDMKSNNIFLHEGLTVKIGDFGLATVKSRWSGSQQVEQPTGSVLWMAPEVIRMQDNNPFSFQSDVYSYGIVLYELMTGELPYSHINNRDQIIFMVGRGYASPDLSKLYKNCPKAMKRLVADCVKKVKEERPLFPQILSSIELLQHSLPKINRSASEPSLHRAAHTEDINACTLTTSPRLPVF

| Compound | IC50 (Kit) [µM] | IC50 (Jnk3) [µM] | IC50 (Kdr) [µM] | IC50 (Ret) [µM] | IC50 (Flt4) [µM] | IC50 (Stk6) [µM] | IC50 (FGFR1) [µM] | IC50 (Flt1) [µM] | IC50 (B-Raf V600E) [µM] | IC50 (Fms) [µM] | IC50 (Fak) [µM] | IC50 (c-Raf-1) [µM] | IC50 (B-Raf) [µM] | IC50 (Btk) [µM] | IC50 (Jnk1) [µM] | IC50 (Src) [µM] |
| --- | --- | --- | --- | --- | --- | --- | --- | --- | --- | --- | --- | --- | --- | --- | --- | --- |
| COc1cccc(C(=O)c2c[nH]c3ncc(-c4cccc(C(N)=O)c4)cc23)c1 [Compound P-0190] | ≤ 10 | ≤ 10 | ≤ 10 | ≤ 10 | ≤ 10 |  |  |  |  |  |  |  |  |  |  |  |
| COc1cccc(C(=O)c2c[nH]c3ncc(-c4cccs4)cc23)c1F [Compound P-0206] | ≤ 10 |  | ≤ 10 | ≤ 10 | ≤ 10 | ≤ 10 | ≤ 10 | ≤ 10 |  |  |  |  |  |  |  |  |
| COc1cccc(C(=O)c2c[nH]c3ncc(-c4ccsc4)cc23)c1 [Compound P-0211] | ≤ 10 | ≤ 10 |  | ≤ 10 | ≤ 10 |  | ≤ 10 | ≤ 10 | ≤ 10 | ≤ 10 | ≤ 10 |  |  |  |  |  |
| COc1cccc(C(=O)c2c[nH]c3ncc(Br)cc23)c1F [Compound P-0265, (5-bromo-1H-pyrrolo[2,3-b]pyridin-3-yl)-(2-fluoro-3-methoxy-phenyl)-methanone] | ≤ 10 |  |  | ≤ 10 | ≤ 10 |  | ≤ 10 |  | ≤ 10 |  |  | ≤ 10 | ≤ 10 |  |  |  |
| COc1cccc(Cc2c[nH]c3ncc(-c4cc5ccccc5[nH]4)cc23)c1 [Compound P-0335] |  |  |  |  | ≤ 10 |  | ≤ 10 |  |  |  |  |  |  |  |  |  |
| O=C(c1ccc(F)cc1F)c1c[nH]c2nccc(-c3cc(F)cc(F)c3)c12 [Compound P-0352] | ≤ 10 |  |  | ≤ 10 | ≤ 10 |  |  |  | ≤ 10 |  |  |  |  |  |  |  |
| O=C(c1ccc(Cl)cc1)c1c[nH]c2ncc(-c3cccnc3)cc12 [Compound P-0418] | ≤ 10 |  | ≤ 10 | ≤ 10 | ≤ 10 |  | ≤ 10 |  | ≤ 10 | ≤ 10 |  | ≤ 10 |  | ≤ 10 |  |  |
| O=C(c1ccccc1)c1c[nH]c2nccc(-c3cc(F)cc(F)c3)c12 [Compound P-0452] |  |  |  | ≤ 10 | ≤ 10 |  | ≤ 10 |  |  |  |  |  |  |  |  |  |
| O=S(=O)(c1ccccc1)c1c[nH]c2ncccc12 [Compound P-0544] |  |  |  |  | ≤ 10 |  |  |  |  |  |  |  |  |  |  |  |
| COc1ccc(C(=O)c2c[nH]c3ncc(Br)cc23)cc1 [Compound P-0617] | ≤ 10 |  |  |  | ≤ 10 |  |  |  |  |  |  |  |  |  |  |  |

More lines, now with the values ahead:

| IC50 (Kit) [µM] | IC50 (Jnk3) [µM] | IC50 (Kdr) [µM] | IC50 (Ret) [µM] | IC50 (Flt4) [µM] | IC50 (Stk6) [µM] | IC50 (FGFR1) [µM] | IC50 (Flt1) [µM] | IC50 (B-Raf V600E) [µM] | IC50 (Fms) [µM] | IC50 (Fak) [µM] | IC50 (c-Raf-1) [µM] | IC50 (B-Raf) [µM] | IC50 (Btk) [µM] | IC50 (Jnk1) [µM] | IC50 (Src) [µM] | Compound |
| --- | --- | --- | --- | --- | --- | --- | --- | --- | --- | --- | --- | --- | --- | --- | --- | --- |
| ≤ 10 | ≤ 10 | ≤ 10 | ≤ 10 | ≤ 10 |  | ≤ 10 | ≤ 10 |  |  |  |  |  |  |  |  | CC(=O)Nc1cccc(-c2cnc3[nH]cc(C(=O)c4cc(C)on4)c3c2)c1 [Compound P-0632] |
| ≤ 10 | ≤ 10 | ≤ 10 | ≤ 10 | ≤ 10 |  | ≤ 10 | ≤ 10 | ≤ 10 |  | ≤ 10 |  |  |  | ≤ 10 | ≤ 10 | CC(=O)Nc1cccc(-c2cnc3[nH]cc(C(=O)c4ccccc4F)c3c2)c1 [Compound P-0668] |
| ≤ 10 |  | ≤ 10 | ≤ 10 | ≤ 10 |  | ≤ 10 | ≤ 10 | ≤ 10 |  |  |  |  |  |  |  | Nc1cccc(-c2cnc3[nH]cc(C(=O)c4cccc(Cl)c4Cl)c3c2)c1 [Compound P-0679] |
| ≤ 10 |  | ≤ 10 | ≤ 10 | ≤ 10 |  | ≤ 10 | ≤ 10 |  |  |  |  |  |  |  |  | Cc1cc(C(=O)c2c[nH]c3ncc(-c4cccc(C(N)=O)c4)cc23)nn1C [Compound P-0737] |
| ≤ 10 |  | ≤ 10 | ≤ 10 | ≤ 10 |  | ≤ 10 | ≤ 10 | ≤ 10 | ≤ 10 |  |  |  |  |  | ≤ 10 | COc1ccc(C(=O)c2c[nH]c3ncc(-c4cccs4)cc23)cc1 [Compound P-0771] |
| ≤ 10 |  | ≤ 10 | ≤ 10 | ≤ 10 |  |  |  |  |  |  |  |  |  |  |  | CS(=O)(=O)Nc1cccc(-c2cnc3[nH]cc(C(=O)c4ccc(Cl)cc4)c3c2)c1 [Compound P-0813] |
